*1 amine or outer side, *2 acyl side, *3 side chain or, on linkers, in order; H or OH if unused. Where a SMILES comes first, the peptide text is derived from it. Bridges are numbered along the chain shown (N, C = ends). Side-chain parts run from the residue outwards. [ ]: non-standard residue; d: D form. The star is where a group is joined. Me3N+CH2CH2(OCH2CH2)4CO = C[N+](C)(C)CCOCCOCCOCCOCCC(=O)*; Me3N+(CH2)2O(CH2)2O(CH2)2CO = C[N+](C)(C)CCOCCOCCC(=O)*; PEG12 = NCCOCCOCCOCCOCCOCCOCCOCCOCCOCCOCCOCCOCCC(=O)O; X42 = O=C(O)CCCCCCCCCCCCCCCCC(=O)N[C@H](CO)CCC(=O)*; Trp(7-Me) = Cc1cccc2c(C[C@H](N)C(=O)O)c[nH]c12; C18 diacid = O=C(O)CCCCCCCCCCCCCCCCC(=O)*; X6 = CN(CC[C@H](N[*:1])C(=O)[*:2])[*:3]; γGlu = O=C(O)[C@H](CCC(=O)[*:2])N[*:1]; 2Nal = N[C@@H](Cc1ccc2ccccc2c1)C(=O)O; AEF = NCCOc1ccc(C[C@H](N)C(=O)O)cc1; X2 = C[N+](C)(C)C[C@@H](CC(=O)O)N*; 3Pal = N[C@@H](Cc1cccnc1)C(=O)O; Lys(Me) = CNCCCC[C@H](N)C(=O)O; NMeK = CN[C@@H](CCCCN)C(=O)O; Pen = CC(C)(S)[C@H](N)C(=O)O; Suc = O=C(CCC(=O)[*:2])[*:1]; Thp = NC1(C(=O)O)CCOCC1; X1 = C[N+](C)(C)CCCCC*; AEEA = NCCOCCOCC(=O)O; Sar = CNCC(=O)O
target: T1, IL-23R (Homo sapiens, UniProt Q5VWK5); assay: IL23R Reporter Assay; assay type: cell-based; details: HEK293 cells containing IL-23R, IL-12Rβ1 and STAT-inducible firefly luciferase reporter; 10 ng/mL IL-23 (EC90); 5 h
T1 construct: HEK293 cells containing IL-23R, IL-12Rβ1 and a firefly luciferase reporter gene driven by a STAT-inducible promoter (Promega); host or cells: HEK293
T1 sequence (Q5VWK5 24-629): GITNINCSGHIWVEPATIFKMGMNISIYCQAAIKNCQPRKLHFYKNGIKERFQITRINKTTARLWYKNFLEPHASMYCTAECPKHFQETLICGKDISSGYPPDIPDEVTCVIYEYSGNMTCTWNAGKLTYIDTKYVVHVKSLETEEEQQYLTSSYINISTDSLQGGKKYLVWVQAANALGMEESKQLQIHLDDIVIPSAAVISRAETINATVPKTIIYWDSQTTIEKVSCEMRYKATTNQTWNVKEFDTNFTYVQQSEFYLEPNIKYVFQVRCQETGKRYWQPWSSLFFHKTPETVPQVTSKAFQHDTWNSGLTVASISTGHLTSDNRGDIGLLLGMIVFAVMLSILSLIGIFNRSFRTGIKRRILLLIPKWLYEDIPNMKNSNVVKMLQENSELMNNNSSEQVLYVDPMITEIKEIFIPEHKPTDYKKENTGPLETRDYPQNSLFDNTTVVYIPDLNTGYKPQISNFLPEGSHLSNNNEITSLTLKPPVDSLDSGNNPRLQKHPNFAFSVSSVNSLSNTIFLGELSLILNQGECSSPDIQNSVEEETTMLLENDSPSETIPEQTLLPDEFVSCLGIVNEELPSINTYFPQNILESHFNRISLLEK
Experimental: Compounds were serially diluted in 100% (v/v) DMSO) and plated using an Echo acoustic dispenser (Labcyte) into 1536-well non-treated black assay plates (Corning #9146). 3 μL of HEK293 cells containing IL-23R, IL-12Rβ1 and a firefly luciferase reporter gene driven by a STAT-inducible promoter (Promega) were added to the plates (4000 cells/well), followed by 3 μL of 10 ng/mL IL-23 (equivalent to EC90 concentration). After 5 h at 37° C., 5% CO2, 95% relative humidity, cells were placed at 20° C. and treated with BioGlo reagent (Promega) according to the Manufacturer's instructions. Luminescence was measured on a Pherastar FSX (BMG LabTech). Data were normalized to IL-23 treatment (0% inhibition) and 30 μM of control inhibitor (100% inhibition), and IC50 values were determined using a 4-parameter Hill equation.

| SMILES | IC50 |
| --- | --- |
| CC(=O)N(C)CCCC[C@@H]1NC(=O)[C@H](Cc2c[nH]c3c(C)cccc23)NC(=O)[C@H]([C@@H](C)O)NC(=O)[C@H](CC(=O)N(C)C)NC(=O)[C@@H](NC(=O)[C@H](CCCCNC(=O)COCCOCCNC(=O)COCCOCCNC(=O)CC[C@H](NC(=O)CCCCCCCCCCCCCCCCC(=O)O)C(=O)O)NC(=O)CCOCCOCC[N+](C)(C)C)C(C)(C)SSC(C)(C)[C@@H](C(=O)N[C@@H](Cc2ccc(OCCN)cc2)C(=O)N[C@@H](Cc2ccc3ccccc3c2)C(=O)NC2(C(=O)N[C@@H](CCCCN(C)C(C)=O)C(=O)N[C@@H](CC(N)=O)C(=O)N[C@@H](Cc3cccnc3)C(=O)N(C)CC(N)=O)CCOCC2)NC1=O [compound 68, cPEG3aCO-K(PEG2PEG2gEC18OH)-Pen(3)-N(N(Me)2)-T-7MeW-K(NMeAc)-Pen(3)-AEF-2Nal-THP-K(NMeAc)-N-3Pya-Sar-CONH2] ({Me3N+(CH2)2O(CH2)2O(CH2)2CO}-K([AEEA-AEEA-γGlu-C18 diacid])[Pen]D(NMe2)T[Trp(7-Me)][Lys(Me)](Ac)[Pen][AEF][2Nal][Thp][Lys(Me)](Ac)N[3Pal][Sar]-NH2; disulfide 2-7) | ≥ 500 nM |
| CC(=O)NCCCC[C@@H]1NC(=O)[C@H](Cc2c[nH]c3c(C)cccc23)NC(=O)[C@H]([C@@H](C)O)NC(=O)[C@H](CC(N)=O)NC(=O)[C@@H](NC(=O)[C@@H](CCCNC(=N)N)NC(C)=O)C(C)(C)SSC(C)(C)[C@@H](C(=O)N[C@@H](Cc2ccc(OCCCCC[N+](C)(C)C)cc2)C(=O)N[C@@H](Cc2ccc3ccccc3c2)C(=O)NC2(C(=O)N[C@@H](CCC(=O)O)C(=O)N[C@@H](CC(N)=O)C(=O)N[C@@H](Cc3cccnc3)C(=O)N(C)CC(=O)N[C@@H](CCCCNC(=O)COCCOCCNC(=O)COCCOCCNC(=O)CC[C@H](NC(=O)CCCCCCCCCCCCCCCCC(=O)O)C(=O)O)C(N)=O)CCOCC2)NC1=O [compound 69, MeCO-r-Pen(3)-N-T-7MeW-K(Ac)-Pen(3)-TMAPF-2Nal-THP-E-N-3Pya-Sar-K(PEG2PEG2C18OH)-CONH2] (Ac-[dR][Pen]NT[Trp(7-Me)]K(Ac)[Pen]Y(X1)[2Nal][Thp]EN[3Pal][Sar]K([AEEA-AEEA-γGlu-C18 diacid])-NH2; disulfide 2-7) | 50 to 500 nM |
| CC(=O)N[C@H](CCCNC(=N)N)C(=O)N[C@@H]1C(=O)N[C@@H](CC(N)=O)C(=O)N[C@@H]([C@@H](C)O)C(=O)N[C@@H](Cc2c[nH]c3c(C)cccc23)C(=O)N[C@@H](CCCCNC(=O)CCC(=O)N[C@H](CC(=O)O)C[N+](C)(C)C)C(=O)N[C@H](C(=O)N[C@@H](Cc2ccc(OCCN)cc2)C(=O)N[C@@H](Cc2ccc3ccccc3c2)C(=O)NC2(C(=O)N[C@@H](CCC(=O)O)C(=O)N[C@@H](CC(N)=O)C(=O)N[C@@H](Cc3cccnc3)C(=O)N(C)[C@@H](CCCCNC(=O)COCCOCCNC(=O)COCCOCCNC(=O)CC[C@H](NC(=O)CCCCCCCCCCCCCCCCC(=O)O)C(=O)O)C(N)=O)CCOCC2)C(C)(C)SSC1(C)C [compound 29, MeCO-r-Pen(3)-N-T-7MeW-K(D)-Pen(3)-AEF-2Nal-THP-E-N-3Pya-NMeK(PEG2PEG2gEC18OH)-CONH2] (Ac-[dR][Pen]NT[Trp(7-Me)]K([Suc-X2])[Pen][AEF][2Nal][Thp]EN[3Pal][NMeK]([AEEA-AEEA-γGlu-C18 diacid])-NH2; disulfide 2-7) | 50 to 500 nM |

system: IL-23-stimulated phosphorylated STAT3 in peripheral blood mononuclear cells (PBMCs); assay: PBMC pSTAT3 Assay; assay type: cell-based; details: PBMCs from healthy donors; 30 min preincubation with peptide; IL-23 5 ng/mL for 30 min; phospho-STAT3 by MSD
Experimental: Cryopreserved peripheral blood mononuclear cells (PBMCs) from healthy donors were thawed and washed twice in ImmunoCult-XF T cell expansion medium (XF-TCEM) supplemented with CTL anti-aggregate wash. The cells were counted, resuspended at 2-6×10^5 cells per mL XF-TCEM supplemented with penicillin/streptomycin and 100 ng/mL […] (BioLegend, 579404), and cultured in tissue culture flasks coated with anti-CD3 (eBioscience, 16-0037-85 or BD Pharmingen, 555329) at 37° C. in 5% CO2. On day 4 of culture, PBMCs were collected, washed twice in RPMI-1640 supplemented with 0.1% BSA (RPMI-BSA), and incubated in RPMI-BSA in upright tissue culture flasks for ~4 hours at 37° C. in 5% CO2. Following this 'starvation,' a total of 6×10^4 cells in 30 μL RPMI-BSA was transferred into each well of a 384-well plate pre-spotted with peptide or DMSO. The cells were incubated for 30 minutes prior to the addition of […] at a final concentration of 5 ng/mL. The cells were stimulated with cytokine for 30 minutes at 37° C. in 5% CO2, transferred onto ice for 10 minutes, and lysed. Cell lysates were stored at -80° C. until phosphorylated STAT3 was measured using the phospho-STAT panel kit (Meso Scale Discovery, […]). Results are provided below. • A: IC50<0.5 nM; • B: 0.5 nM≤IC50<5 nM; • C: 5 nM≤IC50; • ND: Not determined

| SMILES | IC50 |
| --- | --- |
| CC(=O)NCCCC[C@@H]1NC(=O)[C@H](Cc2c[nH]c3c(C)cccc23)NC(=O)[C@H]([C@@H](C)O)NC(=O)[C@H](CC(N)=O)NC(=O)[C@@H](NC(=O)[C@@H](CCCNC(=N)N)NC(C)=O)C(C)(C)SSC(C)(C)[C@@H](C(=O)N[C@@H](Cc2ccc(OCCNC(=O)CCC(=O)N[C@H](CC(=O)O)C[N+](C)(C)C)cc2)C(=O)N[C@@H](Cc2ccc3ccccc3c2)C(=O)NC2(C(=O)N[C@@H](CCC(=O)O)C(=O)N[C@@H](CC(N)=O)C(=O)N[C@@H](Cc3cccnc3)C(=O)N(C)[C@@H](CCCCNC(=O)COCCOCCNC(=O)COCCOCCNC(=O)CC[C@H](NC(=O)CCCCCCCCCCCCCCCCC(=O)O)C(=O)O)C(N)=O)CCOCC2)NC1=O [compound 16, MeCO-r-Pen(3)-N-T-7MeW-K(Ac)-Pen(3)-AEF(d)-2Nal-THP-E-N-3Pya-NMeK(PEG2PEG2gEC18OH)-CONH2] (Ac-[dR][Pen]NT[Trp(7-Me)]K(Ac)[Pen][AEF]([Suc-X2])[2Nal][Thp]EN[3Pal][NMeK]([AEEA-AEEA-γGlu-C18 diacid])-NH2; disulfide 2-7) | < 0.5 nM |
| Cc1cccc2c(C[C@@H]3NC(=O)[C@H]([C@@H](C)O)NC(=O)[C@H](CC(=O)N(C)C)NC(=O)[C@@H](NC(=O)CCOCCOCCOCCOCC[N+](C)(C)C)C(C)(C)SSC(C)(C)[C@@H](C(=O)N[C@@H](Cc4ccc(OCCN)cc4)C(=O)N[C@@H](Cc4ccc5ccccc5c4)C(=O)NC4(C(=O)N[C@@H](CCC(=O)O)C(=O)N[C@@H](CC(N)=O)C(=O)N[C@@H](Cc5cccnc5)C(=O)N(C)[C@@H](CCCCNC(=O)CCOCCOCCOCCOCCOCCOCCOCCOCCOCCOCCOCCOCCNC(=O)CC[C@H](NC(=O)CCCCCCCCCCCCCCCCC(=O)O)C(=O)O)C(N)=O)CCOCC4)NC(=O)[C@H](CCN(C)C(=O)CCOCCOCCOCCOCC[N+](C)(C)C)NC3=O)c[nH]c12 [compound 111, cPEG5aCO-Pen(3)-N(N(Me)2)-T-7MeW-Dab(NMecPEG5a)-Pen(3)-AEF-2Nal-THP-E-N-3Pya-NMeK(PEG12gEC18OH)-CONH2] ({Me3N+CH2CH2(OCH2CH2)4CO}-[Pen]D(NMe2)T[Trp(7-Me)][X6](Me3N+CH2CH2(OCH2CH2)4CO)[Pen][AEF][2Nal][Thp]EN[3Pal][NMeK]([PEG12-γGlu-C18 diacid])-NH2; disulfide 1-6) | < 0.5 nM |
| CC(=O)NCCCC[C@@H]1NC(=O)[C@H](Cc2c[nH]c3c(C)cccc23)NC(=O)[C@H]([C@@H](C)O)NC(=O)[C@H](CC(N)=O)NC(=O)[C@@H](NC(=O)[C@@H](CCCCNC(=O)COCCOCCNC(=O)COCCOCCNC(=O)CC[C@@H](CO)NC(=O)CCCCCCCCCCCCCCCCC(=O)O)NC(C)=O)C(C)(C)SSC(C)(C)[C@@H](C(=O)N[C@@H](Cc2ccc(OCCNC(=O)CCC(=O)N[C@H](CC(=O)O)C[N+](C)(C)C)cc2)C(=O)N[C@@H](Cc2ccc3ccccc3c2)C(=O)NC2(C(=O)N[C@@H](CCC(=O)O)C(=O)N[C@@H](CC(N)=O)C(=O)N[C@@H](Cc3cccnc3)C(=O)N(C)CC(N)=O)CCOCC2)NC1=O [compound 17, MeCO-k(PEG2PEG2gEC18OH)-Pen(3)-N-T-7MeW-K(Ac)-Pen(3)-AEF(d)-2Nal-THP-E-N-3Pya-Sar-CONH2] (Ac-[dK]([AEEA-AEEA-X42])[Pen]NT[Trp(7-Me)]K(Ac)[Pen][AEF]([Suc-X2])[2Nal][Thp]EN[3Pal][Sar]-NH2; disulfide 2-7) | < 0.5 nM |
| CC(=O)NCCCC[C@@H]1NC(=O)[C@H](Cc2c[nH]c3c(C)cccc23)NC(=O)[C@H]([C@@H](C)O)NC(=O)[C@H](CC(N)=O)NC(=O)[C@@H](NC(C)=O)C(C)(C)SSC(C)(C)[C@@H](C(=O)N[C@@H](Cc2ccc(OCCCCC[N+](C)(C)C)cc2)C(=O)N[C@@H](Cc2ccc3ccccc3c2)C(=O)NC2(C(=O)N[C@@H](CCCCNC(=O)COCCOCCNC(=O)COCCOCCNC(=O)CC[C@H](NC(=O)CCCCCCCCCCCCCCCCC(=O)O)C(=O)O)C(=O)N[C@@H](N)C(=O)N[C@@H](Cc3ccccn3)C(=O)N(C)CC(N)=O)CCOCC2)NC1=O [compound 86, MeCO-Pen(3)-N-T-7MeW-K(NMecPEG3a)-Pen(3)-AEF-2Nal-THP-K(PEG2PEG2gEC18OH)-N-3Pya-Sar-CONH2] | < 0.5 nM |

From patent publication US20260250320A1, “LIPIDATED PEPTIDE INHIBITORS OF INTERLEUKIN-23 RECEPTOR” (Janssen Pharmaceutica NV, priority 2023, published 2026)
